Converted amounts (≈) assume the structure as drawn. Read-outs that look alike come from different tables or passages of the source.
Legend:
[1] = system: Streptococcus group D X66; experiment: MIC, standard agar dilution test; type: cell-based; details: DX66, read-out: Minimum Inhibitory Concentration
From the text: (§1) The antibacterial activity of the deprotected compounds of this invention is illustrated by the following in vitro and in vivo test data obtained with representative compounds. In Table I, the minimum inhibitory concentration (MIC) for representative compounds against a wide range of gram-positive and gram-negative bacteria is presented. The MIC values were obtained by the standard agar dilution test.

[2] = system: Streptococcus pneumoniae Park I; experiment: MIC, standard agar dilution test; type: cell-based
From the text: as §1

[3] = system: Salmonella typhimurium 1335; experiment: MIC, standard agar dilution test; type: cell-based; details: Salmonella enterica, TYPHIMURIUM, read-out: Minimum Inhibitory Concentration
From the text: as §1

[4] = system: Salmonella heidelberg X514; experiment: MIC, standard agar dilution test; type: cell-based; details: Salmonella enterica, X514, read-out: Minimum Inhibitory Concentration
From the text: as §1

[5] = system: Staphylococcus aureus V41; experiment: MIC, standard agar dilution test; type: cell-based; details: Staphylococcus aureus, V41, read-out: Minimum Inhibitory Concentration
From the text: as §1

[6] = system: Escherichia coli TEM; experiment: MIC, standard agar dilution test; type: cell-based; details: read-out: Minimum Inhibitory Concentration
From the text: as §1

[7] = system: Shigella sonnei N9; experiment: MIC, standard agar dilution test; type: cell-based; details: read-out: Minimum Inhibitory Concentration
From the text: as §1

[8] = system: Hemophilus influenzae 76; experiment: MIC, standard agar dilution test; type: cell-based
From the text: as §1

[9] = system: Serratia marcescens X99; experiment: MIC, standard agar dilution test; type: cell-based
From the text: as §1

[10] = system: Staphylococcus epidermidis EPI2; experiment: MIC, standard agar dilution test; type: cell-based
From the text: as §1

[11] = system: Pseudomonas aeruginosa X239; experiment: MIC, standard agar dilution test; type: cell-based; details: Pseudomonas aeruginosa, X239, read-out: Minimum Inhibitory Concentration
From the text: as §1

[12] = system: Staphylococcus epidermidis EPI1; experiment: MIC, standard agar dilution test; type: cell-based; details: Staphylococcus epidermidis, EPI1; read-out: Minimum Inhibitory Concentration
From the text: as §1

[13] = system: Klebsiella pneumoniae X26; experiment: MIC, standard agar dilution test; type: cell-based
From the text: as §1

[14] = system: Enterobacter cloacae EB5; experiment: MIC, standard agar dilution test; type: cell-based; details: Enterobacter cloacae, EB5, read-out: Minimum Inhibitory Concentration
From the text: as §1

[15] = system: Proteus rettgeri PR7; experiment: MIC, standard agar dilution test; type: cell-based; details: Providencia rettgeri, PR7, read-out: Minimum Inhibitory Concentration, Proteus rettgeri PR7
From the text: as §1

[16] = system: Enterobacter aerogenes X68; experiment: MIC, standard agar dilution test; type: cell-based; details: Klebsiella aerogenes
From the text: as §1

[17] = system: Pseudomonas aeruginosa X528; experiment: MIC, standard agar dilution test; type: cell-based; details: Pseudomonas aeruginosa, X528, read-out: Minimum Inhibitory Concentration
From the text: as §1

[18] = system: Proteus inconstans PR33; experiment: MIC, standard agar dilution test; type: cell-based; details: Providencia alcalifaciens, PR33, read-out: Minimum Inhibitory Concentration
From the text: as §1

[19] = system: Staphylococcus aureus S13E; experiment: MIC, standard agar dilution test; type: cell-based; details: read-out: Minimum Inhibitory Concentration
From the text: as §1

[20] = system: Escherichia coli N10; experiment: MIC, standard agar dilution test; type: cell-based; details: Escherichia coli
From the text: as §1

[21] = system: Klebsiella pneumoniae KAE; experiment: MIC, standard agar dilution test; type: cell-based; details: Klebsiella pneumoniae, read-out: Minimum Inhibitory Concentration
From the text: as §1

[22] = system: Streptococcus group D 9960; experiment: MIC, standard agar dilution test; type: cell-based; details: D9960, read-out: Minimum Inhibitory Concentration
From the text: as §1

[23] = system: Staphylococcus aureus X400; experiment: MIC, standard agar dilution test; type: cell-based; details: Staphylococcus aureus, X400, read-out: Minimum Inhibitory Concentration, Staphylococcus aureus X400
From the text: as §1

[24] = system: Hemophilus influenzae C.L.; experiment: MIC, standard agar dilution test; type: cell-based; details: Haemophilus influenzae
From the text: as §1

[25] = system: Bordetella bronchiseptica 16; experiment: MIC, standard agar dilution test; type: cell-based; details: Bordetella bronchiseptica, 16, read-out: Minimum Inhibitory Concentration
From the text: as §1

[26] = system: Streptococcus pyogenes C203; experiment: MIC, standard agar dilution test; type: cell-based; details: Streptococcus pyogenes, C203, read-out: Minimum Inhibitory Concentration
From the text: as §1

[27] = system: Citrobacter freundii CF17; experiment: MIC, standard agar dilution test; type: cell-based; details: Citrobacter freundii, CF17, read-out: Minimum Inhibitory Concentration
From the text: as §1

[28] = system: Serratia marcescens SE3; experiment: MIC, standard agar dilution test; type: cell-based; details: Serratia marcescens, SE3, read-out: Minimum Inhibitory Concentration
From the text: as §1

[29] = system: Enterobacter aerogenes C32; experiment: MIC, standard agar dilution test; type: cell-based; details: Klebsiella aerogenes
From the text: as §1

[30] = system: Enterobacter aerogenes EB17; experiment: MIC, standard agar dilution test; type: cell-based; details: Klebsiella aerogenes
From the text: as §1

[31] = system: Pseudomonas aeruginosa Ps18; experiment: MIC, standard agar dilution test; type: cell-based; details: Pseudomonas aeruginosa, PS18, read-out: Minimum Inhibitory Concentration
From the text: as §1

[32] = system: Proteus morganii PR15; experiment: MIC, standard agar dilution test; type: cell-based; details: Morganella morganii, PR15, read-out: Minimum Inhibitory Concentration
From the text: as §1

[33] = system: Escherichia coli EC14; experiment: MIC, standard agar dilution test; type: cell-based
From the text: as §1

[34] = system: Proteus rettgeri C24; experiment: MIC, standard agar dilution test; type: cell-based; details: Providencia rettgeri
From the text: as §1

[35] = system: Enterobacter cloacae 265A; experiment: MIC, standard agar dilution test; type: cell-based; details: Enterobacter cloacae, 265A, read-out: Minimum Inhibitory Concentration
From the text: as §1

[36] = system: Staphylococcus aureus X1.1; experiment: MIC, standard agar dilution test; type: cell-based
From the text: as §1

[37] = system: Staphylococcus aureus 3055; experiment: Subcutaneous therapy of experimental bacterial infection in mice (ED50); type: in vivo; details: Staphylococcus aureus, 3055, sc
Protocol: Table II illustrates the effective dose (ED50, the effective dose to protect 50 percent of the test animals) for representative compounds of this invention against an experimental bacterial infection in mice.
The ED50 values were determined as described by W. E. Wick et al., Journal of Bacteriology, 81 [No. 2], 233-235 (1961).

[38] = system: Escherichia coli X563; experiment: Standard disc-plate method, zone of inhibition against apramycin-resistant strain; type: cell-based; details: apramycin-resistant E. coli X563, one value for each of two test runs per compound; for zone of inhibition at 15 µg/disc: Escherichia coli, X563, read-out: Zone of Inhibition (diameter in mm), 15 mcg/disc
From the text: Table III, shown below, illustrates the in vitro activity of 1-N-(S-y-amino-a-hydroxybutyryl)apramycin, 1-N-(RS-y-amino-a-hydroxybutyryl)apramycin, and 1-N-(S-y-amino-a-hydroxybutyryl)nebramine against an apramycin resistant strain of E. coli. The results below were obtained using the standard disc-plate method. The numerical values are the diameters in millimeters of the zones of inhibition observed against this bacterium. Compounds substituted with the y-amino-a-hydroxybutyryl and analogous side chains are useful in treating infections caused by apramycin resistant bacteria such as the one above.
The test organism (E. coli X563) used in the experiments summarized in Table III is resistant to apramycin due to a 3-N-acetyltransferase which enzymatically inactivates apramycin.

| Structure (SMILES) | MIC [1] | MIC [3] | MIC [4] | MIC [5] | MIC [6] | MIC [7] | MIC [11] | MIC [12] | MIC [14] | MIC [15] | MIC [17] | MIC [18] | MIC [19] | MIC [21] | MIC [22] | MIC [23] | MIC [25] | MIC [26] | MIC [27] | MIC [28] | further results |
| --- | --- | --- | --- | --- | --- | --- | --- | --- | --- | --- | --- | --- | --- | --- | --- | --- | --- | --- | --- | --- | --- |
| CNC1C(OC2OC(CO)C(N)C(O)C2O)OC2CC(N)C(OC3C(N)CC(NC(=O)C(O)CCN)C(O)C3O)OC2C1O (stereo not drawn) [Test Compound 1, 1-N-(S-γ-amino-α-hydroxybutyryl)apramycin] | > 128 µg/mL | 16 µg/mL (≈ 25 µM) | 16 µg/mL (≈ 25 µM) | 16 µg/mL (≈ 25 µM) | 4 µg/mL (≈ 6.24 µM) | 16 µg/mL (≈ 25 µM) | 64 µg/mL (≈ 99.9 µM) | 8 µg/mL (≈ 12.5 µM) | 16 µg/mL (≈ 25 µM) | 8 µg/mL (≈ 12.5 µM) | 64 µg/mL (≈ 99.9 µM) | 8 µg/mL (≈ 12.5 µM) | 16 µg/mL (≈ 25 µM) | 16 µg/mL (≈ 25 µM) | > 128 µg/mL | 32 µg/mL (≈ 49.9 µM) | 64 µg/mL (≈ 99.9 µM) | 64 µg/mL (≈ 99.9 µM) | 16 µg/mL (≈ 25 µM) | 16 µg/mL (≈ 25 µM) | MIC ([2]; Streptococcus pneumoniae; read-out: Minimum Inhibitory Concentration): 64 µg/mL (≈ 99.9 µM); MIC ([8]; Haemophilus influenzae, 76, read-out: Minimum Inhibitory Concentration, Hemophilus influenzae 76): 16 µg/mL (≈ 25 µM); MIC ([9]; Serratia marcescens, X99, read-out: Minimum Inhibitory Concentration, Serratia marcescens X99): 8 µg/mL (≈ 12.5 µM); MIC ([10]; Staphylococcus epidermidis, EPI2, read-out: Minimum Inhibitory Concentration): 4 µg/mL (≈ 6.24 µM); MIC ([13]; Klebsiella pneumoniae, X26, read-out: Minimum Inhibitory Concentration): 8 µg/mL (≈ 12.5 µM); MIC ([16]; X68, read-out: Minimum Inhibitory Concentration, Enterobacter aerogenes X68): 8 µg/mL (≈ 12.5 µM); MIC ([20]; N10, Escherichia coli N10, agar dilution, read-out: Minimum Inhibitory Concentration): 8 µg/mL (≈ 12.5 µM); MIC ([24]; read-out: Minimum Inhibitory Concentration, Hemophilus influenzae C.L.): 16 µg/mL (≈ 25 µM); MIC ([29]; C32, read-out: Minimum Inhibitory Concentration): 8 µg/mL (≈ 12.5 µM); MIC ([30]; EB17, read-out: Minimum Inhibitory Concentration): 16 µg/mL (≈ 25 µM); MIC [31]: 128 µg/mL (≈ 200 µM); MIC [32]: 128 µg/mL (≈ 200 µM); MIC ([33]; Escherichia coli EC14, agar dilution, read-out: Minimum Inhibitory Concentration): 16 µg/mL (≈ 25 µM); MIC ([34]; C24, read-out: Minimum Inhibitory Concentration): 8 µg/mL (≈ 12.5 µM); MIC [35]: 32 µg/mL (≈ 49.9 µM); MIC ([36]; Staphylococcus aureus, X1.1, read-out: Minimum Inhibitory Concentration): 8 µg/mL (≈ 12.5 µM); ED50 ([37]; read-out: Effective Dose (ED50), mg/kg × 2 subcutaneous doses at 1 and 5 hours post infection, mice challenged with 68.1 LD50's): < 4.35 mg/kg; Zone of Inhibition (diameter in mm) ([38]; 15 mcg/disc, listed as 1): 14.7 mm; zone of inhibition at 15 µg/disc [38]: 12.4 mm |
| CNC1C(OC2OC(CO)C(N)C(O)C2O)OC2CC(N)C(OC3C(N)CC(NC(=O)CN)C(O)C3O)OC2C1O (centres unmarked) [Test Compound 3, 1-N-glycylapramycin] | > 128 µg/mL | 128 µg/mL (≈ 215 µM) | 128 µg/mL (≈ 215 µM) | 128 µg/mL (≈ 215 µM) | 32 µg/mL (≈ 53.6 µM) | 128 µg/mL (≈ 215 µM) | > 128 µg/mL | 64 µg/mL (≈ 107 µM) | 128 µg/mL (≈ 215 µM) | > 128 µg/mL | > 128 µg/mL | 128 µg/mL (≈ 215 µM) | 64 µg/mL (≈ 107 µM) | > 128 µg/mL | > 128 µg/mL | > 128 µg/mL | > 128 µg/mL | > 128 µg/mL | > 128 µg/mL | 128 µg/mL (≈ 215 µM) | MIC ([2]; Streptococcus pneumoniae, read-out: Minimum Inhibitory Concentration): > 128 µg/mL; MIC ([8]; Haemophilus influenzae, Hemophilus influenzae 76, read-out: Minimum Inhibitory Concentration): 64 µg/mL (≈ 107 µM); MIC ([9]; Serratia marcescens X99, read-out: Minimum Inhibitory Concentration): 64 µg/mL (≈ 107 µM); MIC ([10]; Staphylococcus epidermidis EPI2, agar dilution, read-out: Minimum Inhibitory Concentration): 64 µg/mL (≈ 107 µM); MIC ([13]; Klebsiella pneumoniae X26, agar dilution, read-out: Minimum Inhibitory Concentration): 64 µg/mL (≈ 107 µM); MIC ([16]; Enterobacter aerogenes X68, read-out: Minimum Inhibitory Concentration): 64 µg/mL (≈ 107 µM); MIC ([20]; N10, read-out: Minimum Inhibitory Concentration): > 128 µg/mL; MIC ([24]; Hemophilus influenzae C.L., read-out: Minimum Inhibitory Concentration): 64 µg/mL (≈ 107 µM); MIC ([29]; Enterobacter aerogenes C32, agar dilution, read-out: Minimum Inhibitory Concentration): 64 µg/mL (≈ 107 µM); MIC ([30]; Enterobacter aerogenes EB17, agar dilution, read-out: Minimum Inhibitory Concentration): 64 µg/mL (≈ 107 µM); MIC [31]: > 128 µg/mL; MIC [32]: > 128 µg/mL; MIC ([33]; Escherichia coli, EC14, read-out: Minimum Inhibitory Concentration): 128 µg/mL (≈ 215 µM); MIC ([34]; Proteus rettgeri C24, agar dilution, read-out: Minimum Inhibitory Concentration): 64 µg/mL (≈ 107 µM); MIC [35]: 128 µg/mL (≈ 215 µM); MIC ([36]; Staphylococcus aureus X1.1, agar dilution, read-out: Minimum Inhibitory Concentration): 64 µg/mL (≈ 107 µM); ED50 ([37]; mg/kg × 2 subcutaneous doses at 1 and 5 hours post infection, mice challenged with 1,794 LD50's, read-out: Effective Dose (ED50)): 59.5 mg/kg; zone of inhibition at 15 µg/disc [38]: < 8 mm |
